This assay concerns Pythium ultimum. Kind of assay: Pythium ultimum / liquid culture (seedling damping off). The format is cell-based. As to conditions: Globisporangium ultimum, growth inhibition photometrically 2-3 days after application, compared to untreated control. Here is the method:
15. Pythium ultimum/Liquid Culture (Seedling Damping Off) Mycelia fragments and oospores of a newly grown liquid culture of the fungus are directly mixed into nutrient broth (PDB potato dextrose broth). After placing a (DMSO) solution of test compound into a microtiter plate (96-well format), the nutrient broth containing the fungal mycelia/spore mixture is added. The test plates are incubated at 24° C. and the inhibition of growth is determined photometrically 2-3 days after application.

Molecules are shown by their SMILES.

Usually inhibition of growth stands for how much of the control response was suppressed. High values mean strong suppression, low ones little suppression. Compound `COc1c(C(=O)Nc2nnc(C)[nH]2)ccc2c1B(O)OC2` [Compound 43, 1-hydroxy-7-methoxy-N-(5-methyl-4H-1,2,4-triazol-3-yl)-3H-2,1-benzoxaborole-6-carboxamide] showed an inhibition of growth at 20 ppm of at least 80%.
Turning to `CCC(NC(=O)c1ccc2c(c1OC)B(O)OC2)C(=O)OC` (stereo not drawn) [Compound 44, methyl 2-[(1-hydroxy-7-methoxy-3H-2,1-benzoxaborole-6-carbonyl)amino]butanoate], the inhibition of growth at 20 ppm is at least 80%.
`COc1c(C(=O)NC(=S)N(C)Cc2cccnc2)ccc2c1B(O)OC2` [Compound 47, 1-hydroxy-7-methoxy-N-[methyl(3-pyridylmethyl)carbamothioyl]-3H-2,1-benzoxaborole-6-carboxamide]: the inhibition of growth at 20 ppm was at least 80%.
Compound `CCN(Cc1cccnc1)C(=O)c1ccc2c(c1OC)B(O)OC2` [Compound 48, N-ethyl-1-hydroxy-7-methoxy-N-(3-pyridylmethyl)-3H-2,1-benzoxaborole-6-carboxamide] displayed an inhibition of growth at 20 ppm of at least 80%.
With `COc1c(C(=O)N(C)c2ncn[nH]2)ccc2c1B(O)OC2` [Compound 50, 1-hydroxy-7-methoxy-N-methyl-N-(1H-1,2,4-triazol-5-yl)-3H-2,1-benzoxaborole-6-carboxamide], the inhibition of growth at 20 ppm was at least 80%.
In turn, `COc1n[nH]c(NC(=O)c2ccc3c(c2OC)B(O)OC3)n1` [Compound 51, 1-hydroxy-7-methoxy-N-(3-methoxy-1H-1,2,4-triazol-5-yl)-3H-2,1-benzoxaborole-6-carboxamide] returned an inhibition of growth at 20 ppm of at least 80%.
In the case of `COc1c(C(=O)NCCOc2ccccc2)ccc2c1B(O)OC2` [Compound 56, 1-hydroxy-7-methoxy-N-(2-phenoxyethyl)-3H-2,1-benzoxaborole-6-carboxamide], the inhibition of growth at 20 ppm was at least 80%.
Under `COc1c(C(=O)NCc2ccc(Cl)nc2)ccc2c1B(O)OC2` [Compound 59, N-[(6-chloro-3-pyridyl)methyl]-1-hydroxy-7-methoxy-3H-2,1-benzoxaborole-6-carboxamide] stands at least 80%; under `COc1c(C(=O)NC(C)(C)C)ccc2c1B(O)OC2` [Compound 60, N-tert-butyl-1-hydroxy-7-methoxy-3H-2,1-benzoxaborole-6-carboxamide], at least 80%; under `COc1c(C(=O)NCC2CC(F)(F)C2(F)F)ccc2c1B(O)OC2` (stereo not drawn) [Compound 62, 1-hydroxy-7-methoxy-N-[(2,2,3,3-tetrafluorocyclobutyl)methyl]-3H-2,1-benzoxaborole-6-carboxamide], at least 80%.
`COC(=O)c1cc(NC(=O)c2ccc3c(c2OC)B(O)OC3)cn1C` [Compound 67, methyl 4-[(1-hydroxy-7-methoxy-3H-2,1-benzoxaborole-6-carbonyl)amino]-1-methyl-pyrrole-2-carboxylate] yielded an inhibition of growth at 20 ppm of at least 80%.
Under `COc1c(C(=O)NCc2ncc(C(F)(F)F)cc2Cl)ccc2c1B(O)OC2` [Compound 68, N-[[3-chloro-5-(trifluoromethyl)-2-pyridyl]methyl]-1-hydroxy-7-methoxy-3H-2,1-benzoxaborole-6-carboxamide] stands at least 80%; under `CCC1COC(CNC(=O)c2ccc3c(c2OC)B(O)OC3)O1` (stereo not drawn) [Compound 69, N-[(4-ethyl-1,3-dioxolan-2-yl)methyl]-1-hydroxy-7-methoxy-3H-2,1-benzoxaborole-6-carboxamide], at least 80%.
In the case of `COc1c(C(=O)NCc2ccc(C)o2)ccc2c1B(O)OC2` [Compound 70, 1-hydroxy-7-methoxy-N-[(5-methyl-2-furyl)methyl]-3H-2,1-benzoxaborole-6-carboxamide] it was at least 80%; in that of `COc1c(C(=O)n2nc(N)cc2C)ccc2c1B(O)OC2` [Compound 71, (3-amino-5-methyl-pyrazol-1-yl)-(1-hydroxy-7-methoxy-3H-2,1-benzoxaborol-6-yl)methanone], at least 80%.
Under `COc1c(C(=O)N2CCCC2CO)ccc2c1B(O)OC2` (stereo not drawn) [Compound 72, (1-hydroxy-7-methoxy-3H-2,1-benzoxaborol-6-yl)-[2-(hydroxymethyl)pyrrolidin-1-yl]methanone] stands at least 80%; under `COc1c(C(=O)OCn2cncn2)ccc2c1B(O)OC2` [Compound 73, 1,2,4-triazol-1-ylmethyl 1-hydroxy-7-methoxy-3H-2,1-benzoxaborole-6-carboxylate], at least 80%.
Compound `COc1c(C(=O)OCC(C)(F)F)ccc2c1B(O)OC2` [Compound 74, 2,2-difluoropropyl 1-hydroxy-7-methoxy-3H-2,1-benzoxaborole-6-carboxylate] came in with an inhibition of growth at 20 ppm of at least 80%.
`COc1c(C(=O)OCC(C)=O)ccc2c1B(O)OC2` [Compound 76, acetonyl 1-hydroxy-7-methoxy-3H-2,1-benzoxaborole-6-carboxylate] came in with an inhibition of growth at 20 ppm of at least 80%.
Under `COc1cc(COC(=O)c2ccc3c(c2OC)B(O)OC3)nc(OC)n1` [Compound 78, (2,6-dimethoxypyrimidin-4-yl)methyl 1-hydroxy-7-methoxy-3H-2,1-benzoxaborole-6-carboxylate] stands at least 80%.
The compound `COc1c(C(=O)OCc2ccncc2)ccc2c1B(O)OC2` [Compound 106, 4-pyridylmethyl 1-hydroxy-7-methoxy-3H-2,1-benzoxaborole-6-carboxylate] gave an inhibition of growth at 20 ppm of at least 80%.
The compound `COC(=O)C[C@H](OC(=O)c1ccc2c(c1OC)B(O)OC2)C(=O)OC` [Compound 108, dimethyl (2S)-2-(1-hydroxy-7-methoxy-3H-2,1-benzoxaborole-6-carbonyl)oxybutanedioate] returned an inhibition of growth at 20 ppm of at least 80%.
In the case of `COc1c(C(=O)OCCN(C)C(=O)OC(C)(C)C)ccc2c1B(O)OC2` [Compound 112, 2-[tert-butoxycarbonyl(methyl)amino]ethyl 1-hydroxy-7-methoxy-3H-2,1-benzoxaborole-6-carboxylate] it was at least 80%; in that of `COc1c(C(=O)OCC2COC(=O)O2)ccc2c1B(O)OC2` (stereo not drawn) [Compound 113, (2-oxo-1,3-dioxolan-4-yl)methyl 1-hydroxy-7-methoxy-3H-2,1-benzoxaborole-6-carboxylate], at least 80%.
Under `COc1c(C(=O)OC2COCOC2)ccc2c1B(O)OC2` [Compound 122, 1,3-dioxan-5-yl 1-hydroxy-7-methoxy-3H-2,1-benzoxaborole-6-carboxylate] stands at least 80%.
In the case of `COc1c(C(=O)OCCc2ccccn2)ccc2c1B(O)OC2` [Compound 123, 2-(2-pyridyl)ethyl 1-hydroxy-7-methoxy-3H-2,1-benzoxaborole-6-carboxylate] it was at least 80%; in that of `COc1cc(COC(=O)c2ccc3c(c2OC)B(O)OC3)ccc1O` [Compound 126, (4-hydroxy-3-methoxy-phenyl)methyl 1-hydroxy-7-methoxy-3H-2,1-benzoxaborole-6-carboxylate], at least 80%.
